According to patent US20210300962A1, “LIPID PRODRUGS OF PREGNANE NEU[…] USES THEREOF” (PureTech LYT, Inc., priority 2018, published 2021):

Tests used:
[1] = test system: porcine pancreatic lipase; assay: In vitro hydrolysis of prodrugs by incubation with porcine pancreatic lipase; assay type: in vitro ADME; settings: 37° C.; for hydrolysis of prodrug to its monoglyceride form: simulated intestinal micellar solution, 0-180 min
Protocol: To provide for higher throughput of experiments, unless otherwise stated, in vitro hydrolysis of compounds will generally be performed via incubation with porcine pancreatic lipase. This provides a more reproducible source of pancreatic enzymes, facilitates enhanced experimental throughput, and is also a greater challenge than collected rat enzymes (since enzyme activity in rat intestinal fluid is low). Briefly, pancreatic lipase solution was prepared prior to the hydrolysis experiment by dispersion of 1 g porcine pancreatin in 5 ml of lipolysis buffer and 16.9 μL of 0.5 M NaOH. The suspension was mixed well and centrifuged at 3500 rpm for 15 minutes at 5° C. to provide a supernatant. An amount of 1000 mL of lipolysis buffer was prepared with 0.474 g of tris-maleate (2 mM), 0.206 g of CaCl2.H2O (1.4 mM) and 8.775 g of NaCl (150 mM) adjusted with NaOH to pH 6.5. To assess the potential for prodrug hydrolysis in the intestine, 20 μL of prodrug solution (1 mg/mL dissolved in acetonitrile), 900 μL of simulated intestinal micellar solution [prepared with 0.783 g of NaTDC (3 mM) and 0.291 g of phosphatidylcholine (0.75 mM) in 500 mL lipolysis buffer] and 100 μL of enzyme solution were incubated at 37° C. 20 μL samples of the incubation solution were taken at 0, 5, 10, 15, 30, 60, 90, 120 and 180 minutes post incubation and added to 180 μL of MeCN to stop lipolysis. The mixture was vortexed and centrifuged at 5000 rpm for 5 minutes to precipitate proteins prior to analysis. The supernatant was analyzed by HPLC-MS for residual compound concentrations, and the potential products of compound hydrolysis analyzed.
The data for prodrug compounds I-1 and I-2 are shown in FIG. 8 and FIG. 9, respectively. […] The monoglycerides were then converted at different rates to an acid intermediate and/or free parent ALLO. An acid intermediate was not observed for prodrug I-2. The acid intermediate of prodrug I-1 is believed to have the following structure, based on HPLC-MS data: […]

[2] = test system: dog plasma supplemented with lipoprotein lipase (LPL); assay: In vitro hydrolysis of prodrugs in dog plasma supplemented with lipoprotein lipase; assay type: in vitro ADME; settings: 37° C.; for hydrolysis of prodrug to its monoglyceride form: 0-180 min
Protocol: (§1) In order to probe the release of free drug from TG prodrugs in the systemic circulation, prodrugs are incubated with plasma (rat, mouse, dog, pig or human) supplemented with lipoprotein lipase (LPL, 200 IU/ml). LPL is a key enzyme required for the hydrolysis of lipoprotein associated TG in the systemic circulation and is therefore expected to be a key contributor to lipolysis of the re-esterified drug-TG construct in plasma, largely via liberation of fatty acids in the sn-1 and the sn-3 position of the TG-mimetic, prior to drug release from the 2′ position via esterase hydrolysis. […] is tethered to the luminal surface of vascular endothelial cells under physiological conditions. In the current in vitro studies, plasma is therefore supplemented with LPL to better reflect the in vivo situation.
(§2) To start hydrolysis, 10 μl of LPL solution (10,000 IU/ml) was added to a mixture of 10 μl of prodrug solution (1 mg/ml dissolved in acetonitrile) and 500 μl of blank plasma. The mixture was incubated at 37° C. Samples (20 μl) of the incubation solution were taken at 0, 5, 15, 30, 60, 90, 120 and 180 minutes post-incubation and added to 180 μl of MeCN to stop lipolysis. The mixture was vortexed and centrifuged at 4500×g for 5 minutes to precipitate proteins prior to analysis. The supernatant was analyzed by HPLC-MS/MS for the potential products (MG form, acid form, and free drug) of prodrug hydrolysis.
(§3) The in vitro hydrolysis profile of selected prodrug compounds was determined in rat, dog, and/or human plasma supplemented with LPL. The data for prodrug compound I-1 in rat and dog plasma are shown in FIG. 10 and FIG. 11, respectively. The data for prodrug compound I-2 in rat, dog, and human plasma are shown in FIG. 12, FIG. 13, and FIG. 14, respectively. […] The monoglycerides were then converted at different rates to an acid intermediate and/or free parent ALLO. An acid intermediate was not observed for prodrug I-2. The acid intermediate of prodrug I-1 is believed to have the following structure, based on HPLC-MS data: […]

[3] = test system: rat plasma supplemented with lipoprotein lipase (LPL); assay: In vitro hydrolysis of prodrugs in rat plasma supplemented with lipoprotein lipase; assay type: in vitro ADME; settings: 37° C.; for hydrolysis of prodrug to its monoglyceride form: 0-180 min
Protocol: as §1, §2, §3

[4] = test system: human plasma supplemented with lipoprotein lipase (LPL); assay: In vitro hydrolysis of prodrugs in human plasma supplemented with lipoprotein lipase; assay type: in vitro ADME; settings: 37° C.
Protocol: as §1
To start hydrolysis, 10 μl of LPL solution (10,000 IU/ml) was added to a mixture of 10 μl of prodrug solution (1 mg/ml dissolved in acetonitrile) and 500 μl of blank plasma. The mixture was incubated at 37° C. […] The supernatant was analyzed by HPLC-MS/MS for the potential products (MG form, acid form, and free drug) of prodrug hydrolysis.
The in vitro hydrolysis profile of selected prodrug compounds was determined in rat, dog, and/or human plasma supplemented with LPL. […]

[5] = Rat pharmacokinetic studies: plasma allopregnanolone after oral prodrug or ALLO, and after IV ALLO; assay type: in vivo, male Sprague-Dawley rats; settings: plasma Allo after oral gavage to rats; doses normalized to 2 mg/kg equivalent ALLO; mean±SD (n≥3) or mean±range (n=2)
Protocol: In order to assess the oral bioavailability of test compounds, pharmacokinetic studies were conducted using the following procedure. The day before drug administration, male Sprague-Dawley rats (240-320 g) were anesthetized and the carotid artery was cannulated. The rats were then allowed to regain consciousness and fasted overnight prior to the commencement of experiments with free access to water. The next morning, formulations containing parent compounds or prodrugs were administered via oral gavage or via the jugular vein cannula, and blood samples were collected from the carotid artery cannula from −5 min up to 24 h post dosing. During the blood sample collection period the rats had free access to water but remained fasted for a further 8 h following drug administration. In these allopregnanolone (ALLO) related studies, the blood samples were centrifuged at 4500×g for 5 min to separate plasma. Plasma samples were stored at −20° C. prior to assay by HPLC-MS-MS. The whole blood or plasma samples were assayed for free drug (i.e. non-glyceride associated drug) and were not hydrolized prior to assay (as was the case with the lymph samples).
FIG. 3 illustrates dose-normalized ALLO plasma concentrations following oral gavage of ALLO related formulations to conscious, carotid artery-cannulated male SD rats. The ALLO oral formulation for each rat contained 2 mg of parent ALLO (i.e., non-prodrug allopregnanolone) suspended in 2 ml of suspending vehicle (0.50 sodium carboxymethyl cellulose, 0.4% Tween 80 and 0.9% NaCl in water). Prodrug formulations for each rat contained 2 mg of the ALLO prodrug dispersed in 40 mg oleic acid, 25 mg Tween 80 and 2 ml PBS. Doses were normalized to a 2 mg/kg equivalent dose of ALLO. Data are shown as mean±SD n≥3 or mean±range when n=2. […] Doses are normalized to a 2 mg/kg equivalent ALLO dose and data are presented as mean±SD when n≥3 or mean±range when n=2.
Also shown (bottom) is the calculated area under the curve (AUC) over 0-24 h for each of the test compounds as a fraction of the IV-administered allpregnanolone control.

[6] = background statement; cited from earlier work

Compound	hydrolysis of prodrug to its monoglyceride form [1]	hydrolysis of prodrug to its monoglyceride form [2]	hydrolysis of prodrug to its monoglyceride form [3]	Cmax [5]	further results
CCCCCCCCCCCCCCCC(=O)OCC(COC(=O)CCCCCCCCCCCCCCC)OC(=O)CCCCCCCCC(=O)O[C@@H]1CC[C@@]2(C)[C@@H](CC[C@@H]3[C@@H]2CC[C@]2(C)[C@@H](C(C)=O)CC[C@@H]32)C1 [Compound I-1, 1-((3R,5S,8R,9S,10S,13S,14S,17S)-17-acetyl-10,13-dimethylhexadecahydro-1H-cyclopenta[a]phenanthren-3-yl) 10-(1,3-bis(palmitoyloxy)propan-2-yl) decanedioate]	rapidly converted to the prodrug's monoglyceride form	rapidly converted to the prodrug's monoglyceride form	rapidly converted to the prodrug's monoglyceride form	–	–
CCCCCCCCCCCCCCCC(=O)OCC(COC(=O)CCCCCCCCCCCCCCC)OC(=O)CC(C)CC(=O)OC(C)OC(=O)O[C@@H]1CC[C@@]2(C)[C@@H](CC[C@@H]3[C@@H]2CC[C@]2(C)[C@@H](C(C)=O)CC[C@@H]32)C1 (stereo partly drawn) [Compound I-2, 1-(1-(((((3R,5S,8R,9S,10S,13S,14S,17S)-17-acetyl-10,13-dimethylhexadecahydro-1H-cyclopenta[a]phenanthren-3-yl)oxy)carbonyl)oxy)ethyl) 5-(1,3-bis(palmitoyloxy)propan-2-yl) 3-methylpentanedioate]	rapidly converted to the prodrug's monoglyceride form	rapidly converted to the prodrug's monoglyceride form	rapidly converted to the prodrug's monoglyceride form	–	acid intermediate of hydrolysis ([1]; HPLC-MS): not observed; acid intermediate of hydrolysis [2]: not observed; acid intermediate of hydrolysis [3]: not observed; acid intermediate of hydrolysis [4]: not observed; hydrolysis of prodrug to its monoglyceride form ([4]; 0-180 min): rapidly converted to the prodrug's monoglyceride form
CCCCCCCCCCCCCCCC(=O)OCC(COC(=O)CCCCCCCCCCCCCCC)OC(=O)C(C)(C)CCCCCCCC(=O)O[C@@H]1CC[C@@]2(C)[C@@H](CC[C@@H]3[C@@H]2CC[C@]2(C)[C@@H](C(C)=O)CC[C@@H]32)C1 [Compound I-12, 10-((3R,5S,8R,9S,10S,13S,14S,17S)-17-acetyl-10,13-dimethylhexadecahydro-1H-cyclopenta[a]phenanthren-3-yl) 1-(1,3-bis(palmitoyloxy)propan-2-yl) 2,2-dimethyldecanedioate]	–	–	–	below LOQ)	–
CCCCCCCCCCCCCCCC(=O)OCC(COC(=O)CCCCCCCCCCCCCCC)OC(=O)C(C)(C)CCCCCCCCCC(=O)O[C@@H]1CC[C@@]2(C)[C@@H](CC[C@@H]3[C@@H]2CC[C@]2(C)[C@@H](C(C)=O)CC[C@@H]32)C1 [Compound I-13, 12-((3R,5S,8R,9S,10S,13S,14S,17S)-17-acetyl-10,13-dimethylhexadecahydro-1H-cyclopenta[a]phenanthren-3-yl) 1-(1,3-bis(palmitoyloxy)propan-2-yl) 2,2-dimethyldodecanedioate]	–	–	–	below LOQ)	–
CCCCCCCCCCC(=O)O[C@H]1CC[C@H]2[C@@H]3CCC4=CC(=O)CC[C@]4(C)[C@H]3CC[C@]12C [testosterone undecanoate]	–	–	–	–	bioavailability of testosterone after oral administration of the undecanoate ester [6]: < 5%
